The results in this text go back to patent US6809065B2, “Herbicide containing substituted pyrazole derivative as active ingredient” (SDS Biotech K.K., priority 2001, dated 2004).

Data set [1] concerns rice (Oryza sative, variety: Koshihikari). As to the kind of experiment: Paddy field treatment (Test Example 3), crop. The format is in vivo, Oryza sativa. To be noted: transplanted rice two-leaf period, water surface treatment 10th day after transplantation, 1 kg active ingredient per hectare, evaluated 21st day, lower index = higher safety. Put shortly:
(§1)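 Pot test, flooded paddy soil (4 cm water); weeds sown, 2-leaf rice (Koshihikari) transplanted. Day 10 post-transplant: WP dropped on water, 1 kg a.i./ha. Score index at 21 d after application; higher = stronger herbicidal effect.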

The subject of data set [2] is Chenopodium album. As to the kind of experiment: Upland field foliage treatment (Test Example 1). The data set is classed as in vivo. As to conditions: foliage treatment 14th day after sowing, wettable powder, 1 kg active ingredient per hectare, evaluated 21st day after application. Put shortly:
(§2)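 Read-out is a visual index scored 21 days after treatment. Higher values mean more herbicidal effect on weeds and lower values mean better crop safety. Plants were raised from seed in upland soil and received a leaf-surface spray of 1 kg active ingredient per hectare at 14 days.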

Data set [3] has as its system Setaria viridis. Briefly: Upland field foliage treatment (Test Example 1). As to conditions: foliage treatment 14th day after sowing, wettable powder, 1 kg active ingredient per hectare, evaluated 21st day after application. The data set is classed as in vivo. Put shortly:
as §2

In data set [4] the test system is Stellaria media. Briefly: Upland field foliage treatment (Test Example 1). The format is in vivo. As to conditions: foliage treatment 14th day after sowing, wettable powder, 1 kg active ingredient per hectare, evaluated 21st day after application. Put shortly: as §2
In data set [5] the test system is Digitaria adscendens. Briefly: Upland field foliage treatment (Test Example 1). The format is in vivo. To be noted: foliage treatment 14th day after sowing, wettable powder, 1 kg active ingredient per hectare, evaluated 21st day after application. The method, boiled down:
as §2

In a further data set the test system is Scirpus juncoides. Briefly: Paddy field treatment (Test Example 3). The data set is classed as in vivo. To be noted: paddy pot, submerged 4 cm, dropped on water surface 10th day after transplantation, 1 kg active ingredient per hectare, evaluated 21st day. Put shortly:
as §1

The subject of another data set is Ammannia multiflora. Briefly: Paddy field treatment (Test Example 3). The format is in vivo. As to conditions: paddy pot, submerged 4 cm, dropped on water surface 10th day after transplantation, 1 kg active ingredient per hectare, evaluated 21st day. The method, boiled down:
as §1

The test system of another data set is Monochoria vaginalis. As to the kind of experiment: Paddy field treatment (Test Example 3). The data set is classed as in vivo. As to conditions: paddy pot, submerged 4 cm, dropped on water surface 10th day after transplantation, 1 kg active ingredient per hectare, evaluated 21st day. The method, boiled down:
as §1

The test system of data set [6] is soybean (Glycine max). As to the kind of experiment: Upland field foliage treatment (Test Example 1), crop. The data set is classed as in vivo. As to conditions: foliage treatment 14th day after sowing, 1 kg active ingredient per hectare, evaluated 21st day, lower index = higher safety. The method, boiled down: as §2
The test system of data set [7] is wheat (Triticum aestivum). The data set is described as above. To be noted: foliage treatment 14th day after sowing, 1 kg active ingredient per hectare, evaluated 21st day, lower index = higher safety. The data set is classed as in vivo. Put shortly: as §2
In data set [8] the test system is Chenopodium album. As to the kind of experiment: Upland soil treatment (Test Example 2). The data set is classed as in vivo. To be noted: soil surface treatment next day after sowing, wettable powder, 1 kg active ingredient per hectare, evaluated 21st day after application. Put shortly: (§3)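 Applies a soil-surface, pre-emergence spray of 1 kg active ingredient/ha (wettable powder in water) one day after sowing; weed control and crop injury are rated on an index scale three weeks later.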

The subject of data set [9] is Setaria viridis. As to the kind of experiment: Upland soil treatment (Test Example 2). The format is in vivo. As to conditions: soil surface treatment next day after sowing, wettable powder, 1 kg active ingredient per hectare, evaluated 21st day after application. Put shortly:
as §3

Data set [10] has as its system Stellaria media. As to the kind of experiment: Upland soil treatment (Test Example 2). To be noted: soil surface treatment next day after sowing, wettable powder, 1 kg active ingredient per hectare, evaluated 21st day after application. The format is in vivo. Put shortly:
as §3

For data set [11], the system named is Digitaria adscendens. As to the kind of experiment: Upland soil treatment (Test Example 2). The format is in vivo. As to conditions: soil surface treatment next day after sowing, wettable powder, 1 kg active ingredient per hectare, evaluated 21st day after application. The method, boiled down:
as §3

For a further data set, the system named is Echinochloa spp. As to the kind of experiment: Paddy field treatment (Test Example 3). The format is in vivo, Echinochloa crusgalli. As to conditions: paddy pot, submerged 4 cm, dropped on water surface 10th day after transplantation, 1 kg active ingredient per hectare, evaluated 21st day. Put shortly:
as §1

Data set [12] deals with soybean (Glycine max). As to the kind of experiment: Upland soil treatment (Test Example 2), crop. The data set is classed as in vivo. To be noted: soil surface treatment next day after sowing, 1 kg active ingredient per hectare, evaluated 21st day, lower index = higher safety. The method, boiled down:
as §3

Data set [13] concerns wheat (Triticum aestivum). As to the kind of experiment: Upland soil treatment (Test Example 2), crop. The format is in vivo. To be noted: soil surface treatment next day after sowing, 1 kg active ingredient per hectare, evaluated 21st day, lower index = higher safety. The method, boiled down:
as §3

Each structure is given as a SMILES string.

Consider `COC=C(Cn1nc(-c2ccc(Cl)cc2Cl)cc1C)C(=O)OC` [Compound 7], for which, in data set [1], the “Herbicidal activity Oryza sativa” value is 0 (herbicidal effect of not less than 0% by weight and less than 10% by weight). The “Herbicidal activity Chenopodium album” value is 5 (herbicidal effect of not less than 90% by weight) with Chenopodium album [2]; 4 (herbicidal effect of not less than 70% by weight and less than 90% by weight) in the data set with Chenopodium album [8]. The “Herbicidal activity Setaria viridis” value is 4 (herbicidal effect of not less than 70% by weight and less than 90% by weight) with Setaria viridis [3]; 5 (herbicidal effect of not less than 90% by weight) with Setaria viridis [9]. Besides, the “Herbicidal activity Stellaria media” value in the data set on Stellaria media [4] was 5 (herbicidal effect of not less than 90% by weight); with Stellaria media [10], 4 (herbicidal effect of not less than 70% by weight and less than 90% by weight). Besides, the “Herbicidal activity Digitaria adscendens” value was 4 (herbicidal effect of not less than 70% by weight and less than 90% by weight) in the data set with Digitaria adscendens [5]; 4 (herbicidal effect of not less than 70% by weight and less than 90% by weight) in the data set on Digitaria adscendens [11]. Also, the “Herbicidal activity Scirpus juncoides” value in the data set on Scirpus juncoides is 3 (herbicidal effect of not less than 50% by weight and less than 70% by weight). In addition, in the data set on Ammannia multiflora, the “Herbicidal activity Ammannia multiflora” value was 4 (herbicidal effect of not less than 70% by weight and less than 90% by weight). Further, the “Herbicidal activity Monochoria vaginalis” value with Monochoria vaginalis is 4 (herbicidal effect of not less than 70% by weight and less than 90% by weight). Further, the “Herbicidal activity Glycine max” value is 0 (herbicidal effect of not less than 0% by weight and less than 10% by weight) with soybean (Glycine max) [6]; 0 (herbicidal effect of not less than 0% by weight and less than 10% by weight) with soybean (Glycine max) [12]. Besides, the “Herbicidal activity Triticum aestivum” value in [7] was 0 (herbicidal effect of not less than 0% by weight and less than 10% by weight); in [13], 0 (herbicidal effect of not less than 0% by weight and less than 10% by weight). Further, in the data set on Echinochloa spp., the “Herbicidal activity Echinochloa spp.” value is 4 (herbicidal effect of not less than 70% by weight and less than 90% by weight).

As for `COC=C(Cn1nc(-c2ccccc2)cc1C)C(=O)OC` [Compound 2], the “Herbicidal activity Oryza sativa” value in data set [1] is 0 (herbicidal effect of not less than 0% by weight and less than 10% by weight). In addition, the “Herbicidal activity Chenopodium album” value with Chenopodium album [2] is 4 (herbicidal effect of not less than 70% by weight and less than 90% by weight); in the data set on Chenopodium album [8], 4 (herbicidal effect of not less than 70% by weight and less than 90% by weight). For the same compound, the “Herbicidal activity Setaria viridis” value with Setaria viridis [3] is 4 (herbicidal effect of not less than 70% by weight and less than 90% by weight); with Setaria viridis [9], 4 (herbicidal effect of not less than 70% by weight and less than 90% by weight). Besides, the “Herbicidal activity Stellaria media” value in the data set on Stellaria media [4] is 4 (herbicidal effect of not less than 70% by weight and less than 90% by weight); with Stellaria media [10] it was 4 (herbicidal effect of not less than 70% by weight and less than 90% by weight). Also, the “Herbicidal activity Digitaria adscendens” value with Digitaria adscendens [5] was 4 (herbicidal effect of not less than 70% by weight and less than 90% by weight); with Digitaria adscendens [11], 4 (herbicidal effect of not less than 70% by weight and less than 90% by weight). In addition, in the data set with Scirpus juncoides, the “Herbicidal activity Scirpus juncoides” value was 3 (herbicidal effect of not less than 50% by weight and less than 70% by weight). For the same compound, the “Herbicidal activity Ammannia multiflora” value in the data set on Ammannia multiflora is 3 (herbicidal effect of not less than 50% by weight and less than 70% by weight). Also, in the data set with Monochoria vaginalis, the “Herbicidal activity Monochoria vaginalis” value is 3 (herbicidal effect of not less than 50% by weight and less than 70% by weight). For the same compound, the “Herbicidal activity Glycine max” value in the data set on soybean (Glycine max) [6] was 0 (herbicidal effect of not less than 0% by weight and less than 10% by weight); with soybean (Glycine max) [12] it was 0 (herbicidal effect of not less than 0% by weight and less than 10% by weight). In addition, the “Herbicidal activity Triticum aestivum” value in data set [7] is 0 (herbicidal effect of not less than 0% by weight and less than 10% by weight); in data set [13], 0 (herbicidal effect of not less than 0% by weight and less than 10% by weight). In the data set on Echinochloa spp., the “Herbicidal activity Echinochloa spp.” value was 3 (herbicidal effect of not less than 50% by weight and less than 70% by weight).

As to `COC=C(Cn1nc(-c2cccc(Cl)c2)cc1SC)C(=O)OC` [Compound 38], the “Herbicidal activity Oryza sativa” value in data set [1] is 0 (herbicidal effect of not less than 0% by weight and less than 10% by weight). Moreover, the “Herbicidal activity Chenopodium album” value in the data set on Chenopodium album [2] is 5 (herbicidal effect of not less than 90% by weight); in the data set with Chenopodium album [8] it was 4 (herbicidal effect of not less than 70% by weight and less than 90% by weight). Also, the “Herbicidal activity Setaria viridis” value in the data set with Setaria viridis [3] is 4 (herbicidal effect of not less than 70% by weight and less than 90% by weight); in the data set on Setaria viridis [9], 4 (herbicidal effect of not less than 70% by weight and less than 90% by weight). The “Herbicidal activity Stellaria media” value in the data set with Stellaria media [4] was 5 (herbicidal effect of not less than 90% by weight); in the data set on Stellaria media [10] it was 4 (herbicidal effect of not less than 70% by weight and less than 90% by weight). Further, the “Herbicidal activity Digitaria adscendens” value is 4 (herbicidal effect of not less than 70% by weight and less than 90% by weight) in the data set on Digitaria adscendens [5]; 4 (herbicidal effect of not less than 70% by weight and less than 90% by weight) in the data set with Digitaria adscendens [11]. Moreover, the “Herbicidal activity Scirpus juncoides” value in the data set on Scirpus juncoides is 3 (herbicidal effect of not less than 50% by weight and less than 70% by weight). Also, the “Herbicidal activity Ammannia multiflora” value in the data set on Ammannia multiflora is 3 (herbicidal effect of not less than 50% by weight and less than 70% by weight). In addition, the “Herbicidal activity Monochoria vaginalis” value with Monochoria vaginalis is 4 (herbicidal effect of not less than 70% by weight and less than 90% by weight). The “Herbicidal activity Glycine max” value is 1 (herbicidal effect of not less than 10% by weight and less than 30% by weight) in the data set on soybean (Glycine max) [6]; 0 (herbicidal effect of not less than 0% by weight and less than 10% by weight) in the data set on soybean (Glycine max) [12]. The “Herbicidal activity Triticum aestivum” value is 0 (herbicidal effect of not less than 0% by weight and less than 10% by weight) in [7]; 0 (herbicidal effect of not less than 0% by weight and less than 10% by weight) in data set [13]. The “Herbicidal activity Echinochloa spp.” value in the data set with Echinochloa spp. is 3 (herbicidal effect of not less than 50% by weight and less than 70% by weight).

Turning to `COC=C(Cn1nc(-c2cc(Cl)cc(Cl)c2)c(Cl)c1C)C(=O)OC` [Compound 25], the “Herbicidal activity Oryza sativa” value in data set [1] was 0 (herbicidal effect of not less than 0% by weight and less than 10% by weight). The “Herbicidal activity Chenopodium album” value was 4 (herbicidal effect of not less than 70% by weight and less than 90% by weight) in the data set on Chenopodium album [2]; 4 (herbicidal effect of not less than 70% by weight and less than 90% by weight) with Chenopodium album [8]. Further, the “Herbicidal activity Setaria viridis” value with Setaria viridis [3] is 4 (herbicidal effect of not less than 70% by weight and less than 90% by weight); with Setaria viridis [9], 4 (herbicidal effect of not less than 70% by weight and less than 90% by weight). For the same compound, the “Herbicidal activity Stellaria media” value in the data set on Stellaria media [4] is 4 (herbicidal effect of not less than 70% by weight and less than 90% by weight); in the data set on Stellaria media [10] it was 4 (herbicidal effect of not less than 70% by weight and less than 90% by weight). In addition, the “Herbicidal activity Digitaria adscendens” value in the data set on Digitaria adscendens [5] is 4 (herbicidal effect of not less than 70% by weight and less than 90% by weight); with Digitaria adscendens [11], 4 (herbicidal effect of not less than 70% by weight and less than 90% by weight). Also, in the data set on Scirpus juncoides, the “Herbicidal activity Scirpus juncoides” value is 3 (herbicidal effect of not less than 50% by weight and less than 70% by weight). The “Herbicidal activity Ammannia multiflora” value with Ammannia multiflora is 3 (herbicidal effect of not less than 50% by weight and less than 70% by weight). Further, in the data set on Monochoria vaginalis, the “Herbicidal activity Monochoria vaginalis” value is 3 (herbicidal effect of not less than 50% by weight and less than 70% by weight). Moreover, the “Herbicidal activity Glycine max” value is 0 (herbicidal effect of not less than 0% by weight and less than 10% by weight) in the data set on soybean (Glycine max) [6]; 0 (herbicidal effect of not less than 0% by weight and less than 10% by weight) in the data set with soybean (Glycine max) [12]. Further, the “Herbicidal activity Triticum aestivum” value is 0 (herbicidal effect of not less than 0% by weight and less than 10% by weight) in [7]; 0 (herbicidal effect of not less than 0% by weight and less than 10% by weight) in [13]. In addition, the “Herbicidal activity Echinochloa spp.” value in the data set with Echinochloa spp. was 3 (herbicidal effect of not less than 50% by weight and less than 70% by weight).
